# Test results from patent US4940715A, “5H-pyrazolo[4,3-A] quinolizin-5-one compounds exhibiting therapeutic activities” (Kissei Pharmaceutical Co., Ltd., priority 1988, dated 1990).
# Experiments:
# [1] = system: IgG secreted into culture supernatant by BALB/c mouse spleen cells; assay: Determination of IgG produced in in vitro culture of spleen cells (adoptive secondary immune response against DNP-As), ELISA; format: cell-based; conditions: 96 h, spleen cells 5×10^6 cells/ml, 4 days, 37° C.; for inhibition at 10 µg/mL: 10 μg/ml
# Procedure: (§1) The antiallergic activities of the 5H-pyrazolo[4,3-a]quinolizin-5-one compounds of formula (I) are also confirmed by inhibition of the rat homologous passive cutaneous anaphylaxis (hereinafter referred to as PCA) reaction.
# (§2) Determination of Igs produced in in vitro culture
# (§3) BALB/c mice were immunized intraperitoneally with 5 μg of DNP-As adsorbed on 4 mg aluminum hydroxide gel. Four weeks after the immunization, the spleens were excised from the mice and 5×10^7 spleen cells were transferred intravenously into the recipient mice which had been exposed to 600 rad of X-ray irradiation. Immediately after the cell transfer, the recipients were then immunized intraperitoneally with 5 μg of DNP-As adsorbed on 4 mg aluminum hydroxide gel to induce adoptive secondary immune response. Further 4 weeks after the immunization of recipients, the spleens were excised from them and the spleen cell suspensions containing 5×10^6 cells/ml were cultured with or without a compound to be tested in 96-well micro-titer plates at 37° C. for 4 days. IgE and IgG secreted into the culture supernatant was each determined correspondingly by enzyme-linked immunosolvent assay and the inhibitory effect was calculated according to the following equation. [formula]
# [2] = system: IgE secreted into culture supernatant by BALB/c mouse spleen cells; assay: Determination of IgE produced in in vitro culture of spleen cells (adoptive secondary immune response against DNP-As), ELISA; format: cell-based; conditions: 96 h, spleen cells 5×10^6 cells/ml, 4 days, 37° C.; for inhibition at 10 µg/mL: 10 μg/ml
# Procedure: as §1, §2, §3
Structure (SMILES),inhibition at 10 µg/mL [1] [%],inhibition at 10 µg/mL [2] [%],inhibition at 20 µg/mL ([1]; 20 μg/ml) [%],inhibition at 20 µg/mL ([2]; 20 μg/ml) [%]
"CCCc1nn(C(C)=O)c2c(C#N)c(=O)n3ccccc3c12 [S-26, 3-Acetyl-4-cyano-1-propyl-5H-pyrazolo[4,3-a]quinolizin-5-one]",18,55,,
CCc1nn(C(C)=O)c2c(C#N)c(=O)n3ccccc3c12 [S-31],,,33,75
CC(=O)n1nc(CC(C)C)c2c1c(C#N)c(=O)n1ccccc21 [S-38],4,40,,
